Laboratory results reported in patent US5712274A, “Thienotriazolodiazepine compounds and their pharmaceutical use” (Yoshitomi Pharmaceutical Industries, Ltd., priority 1995, dated 1998).

Assays:
[1] = system: thioglycollate (TG) medium-induced infiltration of leukocytes; experiment: Effect on thioglycollate (TG) medium-induced infiltration of leukocytes; format: in vivo, BALB/c mice; details: TG medium 1 ml, day 4
Method: Effect on thioglycollate (TG) medium-induced infiltration of leukocytes
One ml of TG medium was injected into peritoneal cavity of BALB/c mice on day 0. On day 4, leukocytes infiltrating into the peritoneal cavity were collected with 3 ml of phosphatebuffered saline containing 0.02% EDTA and the density of leukocytes (cells/ml) was counted with an automatic blood cell counter. Total number of leukocytes (X) was calculated from the density of leukocytes (A) with the following formula.
Test compounds were suspended in 0.5% hydroxypropylmethyl-cellulose solution and administered p.o. (0.1 ml/10 g body weight) on days 0 to 3.

[2] = system: antigen induced Eosinophils accumulation into lungs; experiment: Effect on antigen induced eosinophils accumulation into lungs in actively sensitized guinea pigs; format: in vivo, male Dunkin-Hartley guinea pigs; details: 30 mg/kg p.o., BALF 24 h after antigen exposure
Method: Effect on antigen induced Eosinophils accumulation into lungs in actively sensitized guinea pigs
Male Dunkin-Hartley guinea pigs (4W, Japan SLC, Inc.) were used throughout this study.
Sensitized animals were orally administered (p.o.) with compound or solvent (0.5% hydroxymethylcellulose) 30 min. before final sensitization, 30 min. before antigen exposure and 4.5 h after antigen exposure.
Egg albumin (EA, 10 μg) was added to AI(OH)3 (10 mg) in sterile physiological saline (0.5 ml) and mixed in a blender. This mixture was injected intraperitoneally into recipients. And after 14 days and 21 days, the procedure was repeated. Seven days after the final sensitization procedure, Mepyramine 10 mg/kg was injected intraperitoneally into the sensitized animals. After 30 min., the animals were exposed to aerosol of 1% EA in sterile physiological saline for 5 min.
24 h after antigen exposure, the animals were killed by exsanguination and tracheae were cannulated. And the lungs were lavaged three times with 10 ml of sterile physiological saline. Lavage fluid (BALF) was centrifuged (800 rpm for 10 min. at 4° C.) and the cell pellet was resuspended in 10 ml of sterile physilolgical saline and total cell numbers in BALF were counted in a hemocytometer (MEK 4200, Nihon-kohden, Ltd.). Differential cell counts were made from centrifuged preparations stained with May-Giemsa stain.

In the case of `CNC(=O)C[C@@H]1N=C(c2ccc(Cl)cc2)c2c(sc(C)c2C)-n2c(C)nnc21` [Example 1, (S)-N-methyl-4-(4-chloro-phenyl)-2,3,9-trimethyl-6H-thieno[3,2-f][1,2,4]triazolo[4,3-a]-[1,4]diazepine-6-acetamide 1/4 hydrate], the “Total number of leukocytes (mean ± S.D.)” value ([1]; 0.03 mg/kg/day p.o.) is reported as 1059 ± 285 × 10^4, the “Total number of leukocytes (mean ± S.D.)” value ([1]; 0.1 mg/kg/day p.o.) is reported as 719 ± 308 × 10^4 and the “Total number of leukocytes (mean ± S.D.)” value ([1]; 0.3 mg/kg/day p.o.) is reported as 442 ± 117 × 10^4. The Number of eosinophils [2] was 7.0 ± 1.4 × 10^6.
